Measurements reported in PMC10756276, “Highly specific σ2R/TMEM97 ligand FEM-1689 alleviates neuropathic pain and inhibits the integrated stress response” (Proceedings of the National Academy of Sciences of the …, 2023).
Entries after “also recorded” stand apart in the source; their conditions may differ. Like-named read-outs stand apart in the source and are kept apart here.

Tests used:
D4 = D4 (Homo sapiens, UniProt P21917); test: PDSP competitive binding assay; conditions: 10 µM test article; read-out: Ki: primary assay inhibition of radioligand binding, D4
H4 = H4 (Homo sapiens, UniProt Q9H3N8); test: PDSP competitive binding assay
[1] = system: p-eIF2α in human DRG neurons; test: p-eIF2α immunocytochemistry in cultured human DRG neurons; format: cell-based
5HT6 = 5HT6 (Homo sapiens, UniProt P50406); test: PDSP competitive binding assay; conditions: single determination
Beta2 = Beta2 (Homo sapiens, UniProt P07550); test: PDSP competitive binding assay; conditions: 10 µM test article; read-out: Ki: primary assay inhibition of radioligand binding, Beta2
H3 = molecular target: T1, H3 (Homo sapiens, UniProt Q9Y5N1); test: PDSP competitive binding assay; conditions: 10 µM test article; read-out: Ki: primary assay inhibition of radioligand binding, H3
T1 construct: purchased NIMH Psychoactive Drug Screening Program (PDSP), University of North Carolina at Chapel Hill

H1 = molecular target: T2, H1 (Homo sapiens, UniProt P35367); test: PDSP competitive binding assay; conditions: 10 µM test article; read-out: Ki: primary assay inhibition of radioligand binding, H1
T2 construct: purchased NIMH Psychoactive Drug Screening Program (PDSP), University of North Carolina at Chapel Hill

Alpha1d = molecular target: T3, Alpha1d (Homo sapiens, UniProt P25100); test: PDSP competitive binding assay; conditions: 10 µM test article; read-out: Ki: primary assay inhibition of radioligand binding, Alpha1d
T3 construct: purchased NIMH Psychoactive Drug Screening Program (PDSP), University of North Carolina at Chapel Hill

D5 = D5 (Homo sapiens, UniProt P21918); test: PDSP competitive binding assay; conditions: 10 µM test article; read-out: Ki: primary assay inhibition of radioligand binding, D5
5HT1A = molecular target: T4, 5HT1A (Homo sapiens, UniProt P08908); test: PDSP competitive binding assay; conditions: 10 µM test article; read-out: Ki: primary assay inhibition of radioligand binding, 5HT1A
T4 construct: purchased NIMH Psychoactive Drug Screening Program (PDSP), University of North Carolina at Chapel Hill

Beta1 = molecular target: T5, Beta1 (Homo sapiens, UniProt P08588); test: PDSP competitive binding assay; conditions: 10 µM test article; read-out: Ki: primary assay inhibition of radioligand binding, Beta1
T5 construct: purchased NIMH Psychoactive Drug Screening Program (PDSP), University of North Carolina at Chapel Hill

5HT5a = molecular target: T6, 5HT5a (Homo sapiens, UniProt P47898); test: PDSP competitive binding assay; conditions: 10 µM test article; read-out: Ki: primary assay inhibition of radioligand binding, 5HT5a
T6 construct: purchased NIMH Psychoactive Drug Screening Program (PDSP), University of North Carolina at Chapel Hill

Alpha2a = molecular target: T7, Alpha2a (Homo sapiens, UniProt P08913); test: PDSP competitive binding assay; conditions: 10 µM test article; read-out: Ki: primary assay inhibition of radioligand binding, Alpha2a
T7 construct: purchased NIMH Psychoactive Drug Screening Program (PDSP), University of North Carolina at Chapel Hill

M4 = molecular target: T8, M4 (Homo sapiens, UniProt P08173); test: PDSP competitive binding assay; conditions: 10 µM test article; read-out: Ki: primary assay inhibition of radioligand binding, M4
T8 construct: purchased NIMH Psychoactive Drug Screening Program (PDSP), University of North Carolina at Chapel Hill

5HT7 = molecular target: T9, 5HT7 (Homo sapiens, UniProt P34969); test: PDSP competitive binding assay; conditions: 10 µM test article; read-out: Ki: primary assay inhibition of radioligand binding, 5HT7
T9 construct: purchased NIMH Psychoactive Drug Screening Program (PDSP), University of North Carolina at Chapel Hill

M1 = M1 (Homo sapiens, UniProt P11229); test: PDSP competitive binding assay; conditions: 10 µM test article; read-out: Ki: primary assay inhibition of radioligand binding, M1
D1 = D1 (Homo sapiens, UniProt P21728); test: PDSP competitive binding assay; conditions: 10 µM test article; read-out: Ki: primary assay inhibition of radioligand binding, D1
Alpha1a = molecular target: T10, Alpha1a (Homo sapiens, UniProt P35348); test: PDSP competitive binding assay
T10 sequence (P35348 1-466): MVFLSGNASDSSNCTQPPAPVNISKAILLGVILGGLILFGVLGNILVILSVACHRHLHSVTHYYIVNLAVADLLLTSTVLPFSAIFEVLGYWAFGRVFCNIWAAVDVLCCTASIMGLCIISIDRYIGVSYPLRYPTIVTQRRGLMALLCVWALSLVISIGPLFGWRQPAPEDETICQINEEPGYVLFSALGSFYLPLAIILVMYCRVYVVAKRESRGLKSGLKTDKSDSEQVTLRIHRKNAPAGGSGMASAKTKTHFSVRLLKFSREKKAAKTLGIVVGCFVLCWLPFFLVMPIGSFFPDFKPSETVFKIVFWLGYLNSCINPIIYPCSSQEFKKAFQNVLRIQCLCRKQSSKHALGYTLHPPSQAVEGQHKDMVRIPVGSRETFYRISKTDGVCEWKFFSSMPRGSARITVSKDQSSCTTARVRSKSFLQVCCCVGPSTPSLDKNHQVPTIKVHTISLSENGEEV

hERG = hERG (Homo sapiens, UniProt Q12809); test: PDSP competitive binding assay (safety/nuisance target)
σ2R/TMEM97 = σ2R/TMEM97 (Homo sapiens, UniProt Q5BJF2); test: Competition binding with [3H]-ditolylguanidine in presence of (+)-pentazocine (NIMH PDSP)
BZP Rat Brain = test: PDSP competitive binding assay
[2] = dose response curve, given as LogKi with negative sign

H4, sequence (Q9H3N8 whole entry): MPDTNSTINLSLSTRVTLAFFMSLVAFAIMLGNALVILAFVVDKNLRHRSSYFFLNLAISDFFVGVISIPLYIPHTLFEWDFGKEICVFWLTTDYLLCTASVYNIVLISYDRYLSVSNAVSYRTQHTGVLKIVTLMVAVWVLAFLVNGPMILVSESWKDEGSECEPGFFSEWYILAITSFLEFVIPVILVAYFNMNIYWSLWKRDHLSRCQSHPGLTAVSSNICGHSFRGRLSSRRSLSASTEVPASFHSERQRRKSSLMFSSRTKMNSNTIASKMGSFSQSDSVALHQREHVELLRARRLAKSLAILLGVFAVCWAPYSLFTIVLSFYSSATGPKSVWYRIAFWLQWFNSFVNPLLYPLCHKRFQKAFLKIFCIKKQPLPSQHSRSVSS
hERG, sequence (Q12809 whole entry): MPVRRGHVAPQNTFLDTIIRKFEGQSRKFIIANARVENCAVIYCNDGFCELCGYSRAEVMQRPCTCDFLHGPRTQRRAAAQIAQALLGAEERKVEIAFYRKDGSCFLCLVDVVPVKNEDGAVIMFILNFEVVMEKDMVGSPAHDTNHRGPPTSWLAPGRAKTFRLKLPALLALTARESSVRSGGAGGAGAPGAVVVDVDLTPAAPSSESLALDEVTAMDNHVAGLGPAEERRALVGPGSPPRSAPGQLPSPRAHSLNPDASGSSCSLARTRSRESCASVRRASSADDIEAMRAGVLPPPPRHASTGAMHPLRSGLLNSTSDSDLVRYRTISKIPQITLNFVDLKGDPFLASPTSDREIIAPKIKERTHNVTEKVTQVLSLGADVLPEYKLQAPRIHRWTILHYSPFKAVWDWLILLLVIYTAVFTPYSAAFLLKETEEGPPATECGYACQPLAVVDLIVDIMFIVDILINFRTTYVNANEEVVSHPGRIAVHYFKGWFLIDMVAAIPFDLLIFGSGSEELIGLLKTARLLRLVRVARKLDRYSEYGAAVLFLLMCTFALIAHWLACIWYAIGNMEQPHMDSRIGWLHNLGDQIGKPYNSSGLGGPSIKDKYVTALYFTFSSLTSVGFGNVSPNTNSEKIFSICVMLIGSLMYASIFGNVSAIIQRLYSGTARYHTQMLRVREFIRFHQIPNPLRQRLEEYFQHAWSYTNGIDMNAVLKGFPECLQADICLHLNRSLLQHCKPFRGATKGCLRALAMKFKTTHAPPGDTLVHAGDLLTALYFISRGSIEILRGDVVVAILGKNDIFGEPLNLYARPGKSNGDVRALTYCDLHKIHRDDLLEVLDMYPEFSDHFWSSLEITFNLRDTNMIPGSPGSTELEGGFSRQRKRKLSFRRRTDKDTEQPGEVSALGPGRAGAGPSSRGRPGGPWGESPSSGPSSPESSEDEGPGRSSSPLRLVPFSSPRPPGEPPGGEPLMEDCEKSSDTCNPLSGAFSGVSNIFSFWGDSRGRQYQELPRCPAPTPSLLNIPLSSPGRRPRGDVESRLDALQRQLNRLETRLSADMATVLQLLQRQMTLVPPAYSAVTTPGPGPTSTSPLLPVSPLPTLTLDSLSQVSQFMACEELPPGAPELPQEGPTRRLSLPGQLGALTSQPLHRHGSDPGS
σ2R/TMEM97, sequence (Q5BJF2 whole entry): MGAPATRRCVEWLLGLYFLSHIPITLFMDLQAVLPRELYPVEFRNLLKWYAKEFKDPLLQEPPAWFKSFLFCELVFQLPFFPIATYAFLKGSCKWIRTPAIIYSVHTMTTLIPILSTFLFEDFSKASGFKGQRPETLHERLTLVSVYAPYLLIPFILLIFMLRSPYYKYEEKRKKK
D5, sequence (P21918 whole entry): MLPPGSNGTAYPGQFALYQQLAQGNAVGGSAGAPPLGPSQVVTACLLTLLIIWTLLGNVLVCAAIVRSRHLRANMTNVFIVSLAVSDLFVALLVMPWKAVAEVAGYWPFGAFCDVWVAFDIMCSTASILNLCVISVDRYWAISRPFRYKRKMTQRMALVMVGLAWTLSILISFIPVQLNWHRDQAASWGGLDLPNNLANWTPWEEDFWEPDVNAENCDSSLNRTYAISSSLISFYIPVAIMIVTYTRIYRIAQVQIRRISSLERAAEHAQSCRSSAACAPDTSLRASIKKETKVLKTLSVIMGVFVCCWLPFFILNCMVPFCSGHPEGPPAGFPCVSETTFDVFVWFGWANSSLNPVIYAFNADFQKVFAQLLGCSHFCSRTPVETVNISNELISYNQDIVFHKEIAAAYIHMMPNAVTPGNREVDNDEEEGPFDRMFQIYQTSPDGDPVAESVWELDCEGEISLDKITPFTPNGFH
5HT6, sequence (P50406 whole entry, species assumed): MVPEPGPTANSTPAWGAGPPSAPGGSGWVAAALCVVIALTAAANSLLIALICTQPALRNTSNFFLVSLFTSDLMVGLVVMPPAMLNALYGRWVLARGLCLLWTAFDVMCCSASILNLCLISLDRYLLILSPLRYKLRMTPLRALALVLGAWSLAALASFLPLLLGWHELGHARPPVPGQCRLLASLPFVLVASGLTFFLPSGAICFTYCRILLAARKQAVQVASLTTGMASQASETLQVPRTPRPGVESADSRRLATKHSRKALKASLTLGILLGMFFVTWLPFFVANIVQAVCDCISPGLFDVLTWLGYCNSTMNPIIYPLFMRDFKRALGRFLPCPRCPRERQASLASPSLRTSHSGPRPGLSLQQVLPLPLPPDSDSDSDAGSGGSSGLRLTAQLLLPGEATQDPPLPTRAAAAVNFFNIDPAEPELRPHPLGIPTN
T3 sequence (P25100 whole entry): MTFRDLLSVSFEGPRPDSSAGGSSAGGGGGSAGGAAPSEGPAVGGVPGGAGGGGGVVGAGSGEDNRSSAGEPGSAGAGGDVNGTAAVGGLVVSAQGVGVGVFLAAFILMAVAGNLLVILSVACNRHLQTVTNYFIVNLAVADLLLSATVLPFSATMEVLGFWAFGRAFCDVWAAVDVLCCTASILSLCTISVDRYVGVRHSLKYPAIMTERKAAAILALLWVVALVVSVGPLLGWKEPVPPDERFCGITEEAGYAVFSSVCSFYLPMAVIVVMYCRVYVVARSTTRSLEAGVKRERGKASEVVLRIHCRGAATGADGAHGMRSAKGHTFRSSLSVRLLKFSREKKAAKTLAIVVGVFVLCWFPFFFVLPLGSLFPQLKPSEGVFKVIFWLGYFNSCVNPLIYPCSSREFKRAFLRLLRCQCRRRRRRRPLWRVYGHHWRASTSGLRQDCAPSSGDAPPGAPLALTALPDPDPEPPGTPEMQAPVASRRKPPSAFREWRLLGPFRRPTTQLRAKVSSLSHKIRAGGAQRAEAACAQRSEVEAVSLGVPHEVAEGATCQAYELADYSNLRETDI
T1 sequence (Q9Y5N1 whole entry): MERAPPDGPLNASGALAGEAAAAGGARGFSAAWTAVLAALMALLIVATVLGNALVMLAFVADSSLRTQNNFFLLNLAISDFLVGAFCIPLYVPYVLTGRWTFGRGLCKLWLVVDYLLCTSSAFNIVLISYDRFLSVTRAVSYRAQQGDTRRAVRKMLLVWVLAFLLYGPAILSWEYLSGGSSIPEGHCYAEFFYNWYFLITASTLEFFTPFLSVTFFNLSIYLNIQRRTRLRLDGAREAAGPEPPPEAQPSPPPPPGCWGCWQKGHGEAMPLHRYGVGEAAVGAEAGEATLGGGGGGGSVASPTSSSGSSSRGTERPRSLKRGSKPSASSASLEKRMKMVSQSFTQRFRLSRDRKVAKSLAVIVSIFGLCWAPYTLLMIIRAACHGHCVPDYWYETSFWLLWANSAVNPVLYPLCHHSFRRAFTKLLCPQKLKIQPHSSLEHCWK
T2 sequence (P35367 whole entry): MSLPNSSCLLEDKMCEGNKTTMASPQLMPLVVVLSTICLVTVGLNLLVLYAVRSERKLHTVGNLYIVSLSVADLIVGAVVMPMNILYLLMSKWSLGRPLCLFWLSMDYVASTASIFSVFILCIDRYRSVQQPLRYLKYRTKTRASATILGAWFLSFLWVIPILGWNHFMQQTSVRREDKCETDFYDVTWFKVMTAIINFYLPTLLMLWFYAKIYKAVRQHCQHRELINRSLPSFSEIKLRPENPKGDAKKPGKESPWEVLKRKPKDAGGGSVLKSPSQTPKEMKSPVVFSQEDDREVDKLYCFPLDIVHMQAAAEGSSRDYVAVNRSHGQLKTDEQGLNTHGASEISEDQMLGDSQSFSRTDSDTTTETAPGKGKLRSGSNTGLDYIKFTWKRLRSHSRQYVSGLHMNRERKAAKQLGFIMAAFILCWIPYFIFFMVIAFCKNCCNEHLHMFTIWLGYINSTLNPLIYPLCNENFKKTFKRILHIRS
D4, sequence (P21917 whole entry): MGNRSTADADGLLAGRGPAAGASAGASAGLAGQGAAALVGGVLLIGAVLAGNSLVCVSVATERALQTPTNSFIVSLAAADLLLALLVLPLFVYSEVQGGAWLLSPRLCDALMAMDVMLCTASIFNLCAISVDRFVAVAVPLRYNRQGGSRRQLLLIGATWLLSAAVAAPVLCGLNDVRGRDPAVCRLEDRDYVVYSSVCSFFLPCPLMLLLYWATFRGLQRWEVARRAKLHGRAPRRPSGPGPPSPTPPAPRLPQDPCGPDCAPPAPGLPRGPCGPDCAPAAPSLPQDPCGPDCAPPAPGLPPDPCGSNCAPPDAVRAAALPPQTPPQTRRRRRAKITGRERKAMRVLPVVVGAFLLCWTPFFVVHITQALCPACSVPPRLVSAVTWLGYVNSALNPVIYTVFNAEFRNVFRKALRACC
T6 sequence (P47898 whole entry): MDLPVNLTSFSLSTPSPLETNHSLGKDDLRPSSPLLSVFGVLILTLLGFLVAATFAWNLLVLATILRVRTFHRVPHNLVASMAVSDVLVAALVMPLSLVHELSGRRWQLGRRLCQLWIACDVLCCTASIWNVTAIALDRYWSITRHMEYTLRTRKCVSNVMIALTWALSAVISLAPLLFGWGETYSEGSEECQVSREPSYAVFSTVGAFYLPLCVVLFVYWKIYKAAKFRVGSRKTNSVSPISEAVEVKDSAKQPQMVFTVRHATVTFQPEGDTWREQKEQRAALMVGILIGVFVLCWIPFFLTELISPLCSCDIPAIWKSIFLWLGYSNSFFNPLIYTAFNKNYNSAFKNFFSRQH

OCCCN1CC[C@@H]2C[C@H]1c1cc(-c3ccc(C(F)(F)F)cc3)ccc12 [FEM-1689]
inhibition at 10 µM (D4): < 50%
LogKi, H4 (H4; [2]): -5.26
Ki (H4; read-out: H4 Ki, single determination): 5510 nM
Ki (H4; read-out: Ki, H4, dose response curve): 5510 nM
p-eIF2α levels ([1]; 10 and 100 nM, 16 h): significantly reduced p-eIF2α levels
MGO-induced increase in p-eIF2α ([1]; cotreatment MGO 1 µM and FEM-1689 100 nM): prevented this increase; also recorded: prevented an increase in p-eIF2α
Ki (5HT6): > 10000 nM
inhibition at 10 µM (Beta2): < 50%
inhibition at 10 µM (H3): < 50%
inhibition at 10 µM (H1): < 50%
inhibition at 10 µM (Alpha1d): < 50%
inhibition at 10 µM (D5): < 50%
inhibition at 10 µM (5HT1A): < 50%
inhibition at 10 µM (Beta1): < 50%
inhibition at 10 µM (5HT5a): < 50%
inhibition at 10 µM (Alpha2a): < 50%
inhibition at 10 µM (M4): < 50%
inhibition at 10 µM (5HT7): < 50%
inhibition at 10 µM (M1): < 50%
inhibition at 10 µM (D1): < 50%
LogKi, Alpha1A (Alpha1a; [2]): -5.70
Ki (Alpha1a; read-out: Alpha1a Ki, single determination): 1990 nM
Ki (Alpha1a; read-out: Ki, Alpha1A, dose response curve): 1990 nM
LogKi, HERG (hERG; [2]): -6.08
Ki (hERG; dose response curve, read-out: Ki, HERG): 839 nM
Ki (hERG; single determination, read-out: hERG Ki): 839 nM
Ki (σ2R/TMEM97): 11.2 nM
Ki (σ2R/TMEM97; read-out: σ2R/TMEM97 Ki, averages ± SD): 17 ± 8 nM
LogKi, BZP Rat Brain (BZP Rat Brain; [2]): -5.18
Ki (BZP Rat Brain; dose response curve, read-out: Ki, BZP Rat Brain): 6590 nM
Ki (BZP Rat Brain; single determination, read-out: BZP Rat Brain Ki): 6600 nM
